Measurements as given in article PMC5620609 (Pharmaceuticals, 2017).

Assays:
[1] = system: human colon cancer cell line HCT-116; experiment: In vitro growth inhibition (CellTiter-Glo), HCT-116; assay type: cell-based; conditions: HCT 116 TP53(-/-), read-out: GI50 (concentration of drug that inhibited 50% of cell growth), 72 h exposure
Experimental: Cells were grown in an appropriate medium for the cell line of interest; 96 well plates of each cell line were seeded with 5000 cells per well and left overnight. Drug exposed cells were incubated at 37 °C for 72 h. At the end of the 72 h exposure period, plates were removed for the CellTiter-Glo® assay. Luminescence was recorded on a Synergy 4.0. Assays were performed in triplicate.

[2] = system: total DNMT; experiment: Total DNMT inhibition, colorimetric assay in HCT-116 cells; assay type: cell-based, human; conditions: 24 h
Experimental: Total DNMT activity was measured in the colon cancer cell line HCT-116. The assay was performed using the EpiQuick^TM DNA Methyltransferase Activity/Inhibition Assay Kit (Epigentek, Brooklyn, NY, USA). […] Assays were performed three times in triplicate.

[3] = biological target: T1, RNR (Homo sapiens, UniProt P23921); experiment: RNR inhibition whole cell assay (HPLC of nucleotides from HeLa cell extracts); assay type: cell-based; conditions: 50 µM, 16 h
T1 construct: endogenous in cells; host or cells: HeLa
T1 sequence (P23921 1-792): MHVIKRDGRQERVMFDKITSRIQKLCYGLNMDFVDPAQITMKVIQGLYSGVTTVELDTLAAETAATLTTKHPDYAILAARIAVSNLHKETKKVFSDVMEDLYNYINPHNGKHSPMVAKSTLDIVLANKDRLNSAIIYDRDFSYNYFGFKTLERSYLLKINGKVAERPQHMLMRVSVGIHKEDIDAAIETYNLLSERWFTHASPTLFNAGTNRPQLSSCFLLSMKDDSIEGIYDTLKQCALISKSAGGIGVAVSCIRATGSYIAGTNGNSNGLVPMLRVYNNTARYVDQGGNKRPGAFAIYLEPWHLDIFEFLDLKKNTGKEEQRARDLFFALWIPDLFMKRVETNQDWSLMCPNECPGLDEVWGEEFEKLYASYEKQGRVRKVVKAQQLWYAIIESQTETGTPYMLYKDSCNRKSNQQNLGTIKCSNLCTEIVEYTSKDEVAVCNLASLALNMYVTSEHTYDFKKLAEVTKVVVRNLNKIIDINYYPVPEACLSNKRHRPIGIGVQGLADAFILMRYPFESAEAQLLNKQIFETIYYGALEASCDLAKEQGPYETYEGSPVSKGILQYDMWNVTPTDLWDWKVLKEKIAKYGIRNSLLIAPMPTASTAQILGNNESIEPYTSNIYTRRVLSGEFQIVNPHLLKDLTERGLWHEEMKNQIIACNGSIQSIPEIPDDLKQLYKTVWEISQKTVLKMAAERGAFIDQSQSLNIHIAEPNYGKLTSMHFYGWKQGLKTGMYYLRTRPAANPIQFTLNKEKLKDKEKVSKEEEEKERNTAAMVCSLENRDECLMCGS
T1 sequence (P31350 1-389 partner): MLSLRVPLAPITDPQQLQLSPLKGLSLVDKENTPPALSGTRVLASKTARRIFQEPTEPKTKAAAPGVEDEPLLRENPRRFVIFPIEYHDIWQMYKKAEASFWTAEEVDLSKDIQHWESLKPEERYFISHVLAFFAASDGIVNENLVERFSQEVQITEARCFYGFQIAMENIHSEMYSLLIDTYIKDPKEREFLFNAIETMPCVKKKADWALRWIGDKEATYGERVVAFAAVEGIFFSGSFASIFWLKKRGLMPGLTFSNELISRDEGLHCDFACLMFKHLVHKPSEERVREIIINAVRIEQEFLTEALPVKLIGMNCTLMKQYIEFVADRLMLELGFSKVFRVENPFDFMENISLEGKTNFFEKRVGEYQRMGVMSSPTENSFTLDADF
Description: Gemcitabine was used as a positive control.
The method used to extract and quantitate nucleotides followed previously reported procedures.

[4] = reported for decitabine; cited from earlier work
[5] = in vivo; conditions: mouse, iv, 5 mg/kg
Experimental: Three mice were placed in a dose group on the first day of treatment (Day 1). […] Animals were observed daily for mortality and moribundity. Body weights were measured daily starting on day 1.

With `Nc1ncn([C@@H]2O[C@H](CO)[C@@H](O)[C@H]2O)c(=O)n1` [5-azacytidine] the GI50 [1] was 620 nM, the “inhibition of total DNMT” value ([2]; 1 µM, mean of 3 experiments) was 19.2% and the “inhibition of total DNMT” value ([2]; 10 µM) was 48.6%.

In the case of `Nc1ccn([C@@H]2O[C@H](CO)[C@@H](O)C2(F)F)c(=O)n1` [Gemcitabine, gemcitabine, reference compound], the ADP concentration [3] is reported as 15,639, the ATP concentration [3] is reported as 26,296 and the CTP concentration [3] is reported as 1297. The GTP concentration [3] was 2036, the UTP concentration [3] was 4801 and the “dATP, peak area” value [3] was 0 AU. The “dGDP, peak area” value [3] was 7.95 AU, the “dTDP, peak area” value [3] was 43.4 AU and the “dUTP, peak area” value [3] was 5.3 AU.

For `Nc1ncn([C@H]2C[C@H](O)[C@@H](CO)O2)c(=O)n1` [decitabine, 5-aza-2′-deoxycytidine], the half-life [4] is listed as 30 min and the MTD at 3 weeks [5] is listed as less than 5 mg/kg.
